From patent publication EP0055996A1, “Antithrombotic treatment” (T AND R CHEMICALS, INC., priority 1980, dated 1982)

Columns and labels:
coagulation factors [1] = assay: In vitro prothrombin time (PT) coagulation assay; design: species or system human; settings: for PT(sec) REPLICATIONS I: replication I
Description: (§1) In vitro assays of the product of each of Examples A to C and certain of the Examples included in European Application No 81302950.1 were conducted for coagulation factors as described in "Human Blood Coagulation., Haemostasis and Thrombosis", edited by Rosemary Biggs, published by Blackwell Scientific Publications, Oxford, England (2nd Edition), pages 670-705, 1976.

coagulation factors [2] = assay: In vitro partial thromboplastin time (PTT) coagulation assay; design: species or system human; settings: for PTT(sec) REPLICATIONS I: replication I
Description: as §1

[3] = Used at 0.01 Molar Concentration Based on NaHSO3
[4] = Used at 0.01 Molar Concentration Based on NaHSO3, replication II
[5] = Used at 0.01 Molar Concentration Based on NaHSO3, replication III

SMILES	PT(sec) REPLICATIONS I (coagulation factors [1]; [3])	PT(sec) REPLICATIONS II (coagulation factors [1]; [4])	PT(sec) REPLICATIONS III (coagulation factors [1]; [5])	PTT(sec) REPLICATIONS I (coagulation factors [2]; [3])	PTT(sec) REPLICATIONS II (coagulation factors [2]; [4])	PTT(sec) REPLICATIONS III (coagulation factors [2]; [5])	ability to affect PT values (coagulation factors [1]; no conditions given)	ability to affect PTT values (coagulation factors [2]; no conditions given)
O=S([O-])O.[Na+] [NaHSO3 in water, sodium bisulphite]	20.2 s	20.3 s	20.0 s	64.4 s	63.2 s	63.9 s		
O=S(=O)(O)CO [Sodium formaldehyde bisulphite]	20.5 s			63.5 s				
O=S=O [aqueous solutions of sulphur dioxide, sulphur dioxide]							display a capacity to lengthen PT and PTT values at least to the extent indicated above	display a capacity to lengthen PT and PTT values at least to the extent indicated above
